Experimental data as given in paper PMC9154752, “MHC class II molecules on pancreatic cancer cells indicate a potential for neo-antigen-based immunotherapy” (Oncoimmunology, 2022).
Values joined by “and” are separate entries in the source; they are usually repeats but may differ in a detail not shown here. Equal entries are not always repeated. Where two headings read alike, the source gives them in different places. Residues, ends and D or L forms follow the SMILES beside them. No end group written: not given here.

What was measured:
CD4+ T-cells = test: Immunogenicity T-cell assay (intracellular IFN-γ in peptide-stimulated CD4+ T-cells); format: cell-based, human; details: for Immunogenicity, % of responses: percentage of the 9 donors responding; for Immunogenicity, No of responses: responding donors of 9 HLA-DP4-positive donors, 3 weekly stimulations with mDC pulsed at 10 μg/mL, challenge with peptide-pulsed T2-DP4, intracellular IFN-γ by FACS
Method: Immunogenicity of candidate HLA-DP4 neo-epitopes was performed using HLA-matched healthy donors’ autologous PBMCs. Briefly, mature DCs were pulsed with individual neo-epitopes at 10 μg/mL and co-cultured with autologous magnetic-sorted CD4+ T-cells (CD4 Microbeads Human, MACS Miltenyi; #130-045-101) in RPMI with 5% AB human serum (#H4522-100ML; Sigma-Aldrich), 10 units/mL penicillin–streptomycin, 2 mmol/L L-glutamine, 1% nonessential amino acid, IL-6 (#570802; BioLegend) (1000 U/mL) and IL-12 (#573002; BioLegend) (5 ng/mL). IL-2 (#589106; BioLegend) (30 U/mL) and IL-7 (#581902; BioLegend) (5 ng/mL) was added every 2 days. CD4+ T-cells underwent another two rounds of stimulation with peptide-pulsed mature DCs on day 7 and 14. Seven days after the third stimulation, CD4+ T-cells were challenged by overnight incubation with peptide-loaded T2-DP4 cells. As a control, CD4+ T-cells were incubated with T2-DP4 without peptide. Reactivity of the T cells was determined by intracellular IFN-γ (#502515; BioLegend) staining measured by flow cytometry. When Capan-1-derived neo-epitopes were tested, the peptide-stimulated CD4+ T-cells were challenged by overnight incubation with Capan-1 (MHC-II-negative), IFN-γ-treated Capan-1 cells (MHC-II-positive). Supernatants were collected and assessed for LDH (cytotoxicity), IFN-γ, granzyme B and granulysin. Where indicated, purified endotoxin-free anti-MHC class II (clone TÜ39; #555556; BD Bioscience, Chicago, IL, USA) antibodies were added to the co-cultures at 10 μg/mL.
(§1) For cell surface labeling, cell suspensions were incubated with antibodies for 30 min at room temperature. For intracellular staining, cells were fixed and permeabilized using a Leucoperm kit (Bio-Rad; #BUF09C) in accordance with the manufacturer’s guidelines. Prior to intracellular staining with anti-IFN-γ, cells were incubated overnight in the presence of 5 microgram per mL brefeldin A (Sigma-Aldrich; #B6542-5 MG). Cell viability was analyzed by Ethidium homodimer 1 and calcein-AM double-staining using LIVE/DEAD® Viability/Cytotoxicity Kit, for mammalian cells according to the manufacturer’s instructions (#L3224; Invitrogen). Flow cytometry was done using a FACSCalibur (Becton Dickinson, Heidelberg, Germany) or BD LSRII (Becton Dickinson) flow cytometer. The data were processed with the CellQuest software (Becton Dickinson, Heidelberg, Germany) and analyzed with the WinMDi 2.9 (Purdue University, USA).

PDAC cell lines = test: MHC-II surface expression on PDAC cell lines by flow cytometry; format: cell-based, human; details: 48 h; for MHC-II expression, agent alone / MHC-II expression, treatment together with IFN-γ: 8988 T, FA6 and MiaPaca-2 cells; for MHC-II expression, treatment together with IFN-γ: IFN-γ 50 ng/mL
Method: All PDAC cell lines were stimulated with 50 ng/mL of the human recombinant IFN-γ (#570206; BioLegend) in T75 culture flasks for 48 h. As negative control, we co-incubated the cell lines in the medium alone. Where inhibitors were used, trametinib (#S2673; Selleckchem) or trichostatin A (TSA) (#T8552-1 MG; Sigma-Aldrich) at the indicated concentrations were added into the cultures with or without IFN-γ. After incubation, the cells were removed from the flasks by treatment with trypsin, cell suspensions were prepared and cells were stained with purified mouse IgG antibodies to CLIP (clone CerCLIP.1; #ab22606; Abcam, Cambridge, UK), and HLA-DR, DP, DQ (clone Tü39; #555556; BD) or isotype control (mouse IgG2a; #554645; BD) followed by Alexa Fluor 488-conjugated anti-mouse IgG, and APC-conjugated anti-PD-L1 (clone 29E.2A3; #329708; BioLegend) and processed for flow cytometry analysis.
as §1

MiaPaca-2 cells = test: CD4+ T-cell recognition of MiaPaca-2 cells (granzyme B ELISA); format: cell-based, human; details: MHC-II induced by IFN-γ in conjunction with trametinib; overnight, T-cell:tumor 5:1, granzyme B ELISA, 4 donors
Method: Figure 8. Trametinib and TSA enhance responsiveness to IFN-γ in PDAC cells. (A) 8988 T, FA6 and MiaPaca-2 cells were treated with IFN-γ or left untreated, in the presence or absence of the MEK inhibitor, trametinib and/or histone deacetylase inhibitor TSA at the indicated concentrations for 48 hours. The cells were then collected, stained with anti-MHC-II antibodies and analyzed by flow cytometry. All flow cytometry data were gated on viable, singlets and MFI values for MHC-II were normalized to the untreated cells (none). Data are from three independent experiments. (B) Allogenic activated CD4+ T-cells from 4 healthy donors were incubated overnight with MiaPaca-2 cells (T-cell:tumor ratio 5:1). Where indicated, the cultures were treated with blocking antibodies or isotype control (IgG). […] All data were analyzed by one-way ANOVA; * P < 0.05; ** p < 0.01; *** p < 0.001; **** p < 0.0001. […]
The cytokine IFN-γ and the cytolytic molecules granulysin and granzyme B were detected in supernatants of T-cell/tumor cell co-cultures using commercial ELISA kits (Human IFN gamma ELISA Ready-SET-Go!®, #88-7316-76, Affymetrix eBioscience; Human Granulysin DuoSet ELISA, #DY3138; and Human Granzyme B DuoSet ELISA, #DY2906-05, R&D Systems) in 96-well microtiter plates (Nunc Maxisorp, Rochester, NY, USA) following the manufacturer’s instructions.

HLA-DP4 = biological target: T1, HLA-DP4 (Homo sapiens, UniProt P04440+P20036); test: Cell-based competitive MHC-II binding assay with T2-DP4 cells
T1 construct: expressed in transfected cells; host or cells: T2 lymphoblastoid cell line transfected with HLA-DP4 (T2-DP4), gift of Prof; Naoto Hirano, University of Toronto
T1 sequence (P04440 30-258): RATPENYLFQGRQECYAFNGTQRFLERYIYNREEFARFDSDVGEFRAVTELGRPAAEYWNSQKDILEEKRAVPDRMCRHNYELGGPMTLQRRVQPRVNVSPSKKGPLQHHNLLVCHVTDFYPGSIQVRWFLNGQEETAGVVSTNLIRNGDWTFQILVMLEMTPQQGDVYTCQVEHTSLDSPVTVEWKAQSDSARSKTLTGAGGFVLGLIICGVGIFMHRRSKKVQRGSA
T1 sequence (P20036 29-260): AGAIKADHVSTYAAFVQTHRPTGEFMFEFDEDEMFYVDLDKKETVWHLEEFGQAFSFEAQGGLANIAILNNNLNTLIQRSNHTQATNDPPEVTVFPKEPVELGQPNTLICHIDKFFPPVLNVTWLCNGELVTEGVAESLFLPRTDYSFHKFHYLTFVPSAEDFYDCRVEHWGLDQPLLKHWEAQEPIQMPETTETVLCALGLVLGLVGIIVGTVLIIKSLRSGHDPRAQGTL

[1] = T2-DP4 cells, overnight 37°C, competitor from 80 µM in 8 serial dilution steps, 500 nM FITC-labeled Oxy271-287, flow cytometry, n = 3 per peptide, read-out: IC50 (µM) Binding Assay

In the case of `CSCC[C@H](NC(=O)[C@H](CCC(N)=O)NC(=O)[C@@H]1CCCN1C(=O)[C@@H](NC(=O)[C@H](CC(=O)O)NC(=O)[C@@H](N)CS)C(C)C)C(=O)N[C@@H](CC(C)C)C(=O)N[C@@H](CCCCN)C(=O)N[C@@H](CC(C)C)C(=O)N[C@@H](C)C(=O)N[C@@H](CS)C(=O)N[C@@H](Cc1ccc(O)cc1)C(=O)N[C@@H](Cc1ccc(O)cc1)C(=O)N[C@@H](CCC(=O)O)C(=O)N[C@@H](Cc1ccccc1)C(=O)O` [Peptide 94] (H-CDVPQMLKLACYYEF-OH; N-terminus and C-terminus assumed), the “Immunogenicity, % of responses” value (CD4+ T-cells) is reported as 0% and the “Immunogenicity, No of responses” value (CD4+ T-cells) is reported as 0 of 9.

For `CC(/C=C/C(=O)NO)=C\[C@@H](C)C(=O)c1ccc(N(C)C)cc1` [TSA, trichostatin A], the “MHC-II expression, agent alone” value (PDAC cell lines) was “did not induce expression of MHC-II” and the “MHC-II expression, treatment together with IFN-γ” value (PDAC cell lines) was “enhanced MHC-II expression in FA6 cells, but not in 8988 T and MiaPaca-2 cells”.

In the case of `CC(=O)Nc1cccc(-n2c(=O)n(C3CC3)c(=O)c3c(Nc4ccc(I)cc4F)n(C)c(=O)c(C)c32)c1` [trametinib], the “Susceptibility of MiaPaca-2 cells to CD4+ T-cell recognition” value (MiaPaca-2 cells) is reported as “rendered these cells susceptible to CD4+ T-cells recognition”, the “MHC-II expression, agent alone” value (PDAC cell lines) is reported as “induced a slight increase in the expression of MHC-II” and the “MHC-II expression, treatment together with IFN-γ” value (PDAC cell lines) is reported as “increased MHC-II expression compared with IFN-γ alone”.

With ALLKFWEDEGFVREE [Peptide 101] the “Immunogenicity, % of responses” value (CD4+ T-cells) was 44% and the “Immunogenicity, No of responses” value (CD4+ T-cells) was 4 of 9.

FESEKYQDILMWNYR [Peptide 73] was tested, and the IC50 (HLA-DP4; [1]) was 15.9 µM.

In the case of “FNNFTVSFWLRVPKVSASHLE [TT 947-967, reference compound]”, the IC50 (HLA-DP4) is reported as 3.05 µM.

FQHLHRLTYLKLWYN [Peptide 80] showed an IC50 (HLA-DP4; [1]) of 27.8 µM.

GKGLVYAQYLPKEQY [Peptide 105] was tested, and the IC50 (HLA-DP4; [1]) was 47.9 µM.

In the case of GLQTLYSAALYHLTT [Peptide 93], the IC50 (HLA-DP4; [1]) is reported as 21.6 µM.

In the case of HLVAFGISCFLGSGL [Peptide 77], the “Immunogenicity (in words)” value (CD4+ T-cells; 9 HLA-DP4-positive donors) is reported as “most immunogenic”, the “Immunogenicity, % of responses” value (CD4+ T-cells) is reported as 88% and the “Immunogenicity, No of responses” value (CD4+ T-cells) is reported as 8 of 9.

HTCVKFYIEGFEPGK [Peptide 74] was tested, and the “Immunogenicity, % of responses” value (CD4+ T-cells) was 11% and the “Immunogenicity, No of responses” value (CD4+ T-cells) was “one out of nine and 1 of 9”.

IGQVAAGAFANLRAL [Peptide 99] gave an IC50 (HLA-DP4; [1]) of 27.9 µM.

IVKGRFGEVWRGRWR [Peptide 103] was tested, and the “Immunogenicity, % of responses” value (CD4+ T-cells) was 22% and the “Immunogenicity, No of responses” value (CD4+ T-cells) was 2 of 9.

IYSLRNTEFKSALRR [Peptide 83] showed an IC50 (HLA-DP4; [1]) of 27.7 µM.

Work on KFESEKYQDILMWNY [Peptide 71] yielded an IC50 (HLA-DP4; [1]) of 28.9 µM.

LKFWEDEGFVREEED [Peptide 100] was tested, and the “Immunogenicity, % of responses” value (CD4+ T-cells) was 22% and the “Immunogenicity, No of responses” value (CD4+ T-cells) was 2 of 9.

In the case of LLKFWEDEGFVREEE [Peptide 98], the “Immunogenicity, % of responses” value (CD4+ T-cells) is reported as 11% and the “Immunogenicity, No of responses” value (CD4+ T-cells) is reported as “one out of nine and 1 of 9”.

Work on MIYSLRNTEFKSALR [Peptide 84] yielded an IC50 (HLA-DP4; [1]) of 24.5 µM.

For PMIYSLRNTEFKSAL [Peptide 92], the IC50 (HLA-DP4; [1]) was 6.36 µM.

Molecule PRGKGLVYAQYLPKE [Peptide 104] has an IC50 (HLA-DP4; [1]) of 38.2 µM.

In the case of QGKYKAFSTCAFHLS [Peptide 70], the IC50 (HLA-DP4; [1]) is reported as 31.5 µM.

QHLHRLTYLKLWYNH [Peptide 82] gave an IC50 (HLA-DP4; [1]) of 18.6 µM.

With QPEGPYRVAGYSYVA [Peptide 87] the IC50 (HLA-DP4; [1]) was 31.9 µM.

RNTGLQTLYSAALYH [Peptide 97] gave an IC50 (HLA-DP4; [1]) of 22.6 µM.

For RNTIGQVAAGAFANL [Peptide 86], the IC50 (HLA-DP4; [1]) was 37 µM.

Work on SFQHLHRLTYLKLWY [Peptide 78] yielded an IC50 (HLA-DP4; [1]) of 25.8 µM.

Molecule SIDRTVMYYGLLFIQ [Peptide 88] has an IC50 (HLA-DP4; [1]) of 71 µM.

For TAFTFQSSKEKLDVG [Peptide 109], the “Immunogenicity, % of responses” value (CD4+ T-cells) was 11% and the “Immunogenicity, No of responses” value (CD4+ T-cells) was “one out of nine and 1 of 9”.

In the case of TDLHMLGAPVWAMLF [Peptide 96], the IC50 (HLA-DP4; [1]) is reported as 10.9 µM.

Molecule TFRSPQKFGALIFLV [Peptide 91] has an IC50 (HLA-DP4; [1]) of 24.8 µM.

For TGLQTLYSAALYHLT [Peptide 102], the IC50 (HLA-DP4; [1]) was 14.3 µM.

In the case of YKAFSTCAFHLSVVS [Peptide 69], the “Binding to HLA-DP4 in cell-based binding assay (in words)” value (HLA-DP4; Peptides with IC50 < 200 µM were considered binders) is reported as “not to bind”.

B1: IFN-γ: human recombinant IFN-γ (#570206; BioLegend) (protein, UniProt P01579 24-161, looked up)
Interferon gamma: QDPYVKEAENLKKYFNAGHSDVADNGTLFLGILKNWKEESDRKIMQSQIVSFYFKLFKNFKDDQSIQKSVETIKEDMNVKFFNSNKKKRDDFEKLTNYSVTDLNVQRKAIHELIQVMAELSPAAKTGKRKRSQMLFRG
In the case of B1, the “MHC class II surface expression” value (PDAC cell lines; 14 PDAC and circulating tumor cell lines, 50 ng/mL) is reported as “upregulated in these cell lines and de novo expression was observed in six additional cell lines” and the “MHC-II expression, agent alone” value (PDAC cell lines) is reported as “induced low expression of MHC-II”.
